Common to all, as to assay: growth of human tumour cells (NCI), 48 h
Assay [1] relates to A498.
Assay [2] concerns ACHN.
The subject of assay [3] is COLO 205.
Assay [4] concerns DU-145.
For assay [5], the system named is HCT-15.
In assay [6] the test system is HOP-92.
Assay [7] has as its system IGROV-1.
Assay [8] deals with K562.
Assay [9] deals with KM12.
Assay [10] has as its system MDA-MB-231.
For assay [11], the system named is NCI-H226.
Assay [12] has as its system OVCAR-3.
Assay [13] has as its system RPMI-8226.
Assay [14] concerns SR.
Assay [15] deals with TK-10.
For assay [16], the system named is UACC-62.
Assay [17] relates to UO-31.
Assay [18] relates to SNB-75.
In assay [19] the test system is HL-60.

Molecules are shown by their SMILES.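 Protocol summary: plate cells (96-well), add compound at 5 concentrations, incubate 48 h, interpolate endpoints linearly. GI50: concentration for 50% inhibition of growth.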 Active and inactive are the calls of the source. Rule as the data show it: active = GI50 up to about 1.1 µM and inactive = higher.

For `O=C(CCc1cc(O)cc(O)c1)NCCCNC(=O)CCc1cc(O)cc(O)c1`, the GI50 was > 100 µM (inactive) in assay [1]; > 100 µM (inactive) in assay [2]; > 100 µM (inactive) in [3]; > 100 µM (inactive) in assay [4]; > 100 µM in assay [5]; > 100 µM (inactive) in assay [6]. Besides, the GI50 in assay [7], in [8], in [9], in assay [10], in [11] and in assay [12] was > 100 µM (inactive) in each case. Moreover, the GI50 in assay [13], in assay [14], in assay [15], in [16] and in assay [17] was > 100 µM (inactive) throughout.

For the compound `O=C(c1ccccc1)N1CCC(CC2(c3cc4ccccc4[nH]3)OCCO2)CC1`, the GI50 is 21.4 µM (inactive) in [1]; 65.8 µM (inactive) in assay [2]; 21.2 µM (inactive) in [3]; > 100 µM (inactive) in assay [4]; 32.4 µM in assay [5]; 21.2 µM (inactive) in assay [6]. Also, the GI50 in [7] was 42.2 µM (inactive); in assay [8], 16.3 µM (inactive); in assay [9] it was 34.2 µM (inactive); in assay [10], 64.1 µM (inactive); in [11], 32.7 µM (inactive); in assay [12], > 100 µM (inactive). For the same compound, the GI50 in [13] was 2.52 µM (inactive); in assay [18], 47.1 µM (inactive); in [14], 33 µM (inactive); in [15], 28.3 µM (inactive); in assay [16], 19 µM (inactive); in assay [17], 30.6 µM (inactive).

Consider `OC[C@@H](O)[C@H](O)[C@H](O)[C@@H](O)C1SCCCS1`, for which the GI50 in [1] is > 100 µM (inactive); in assay [2], > 100 µM (inactive); in assay [3] it was > 100 µM (inactive); in assay [4], > 100 µM (inactive); in assay [5], > 100 µM; in assay [6] it was 17.2 µM (inactive). Moreover, the GI50 in assay [7], in assay [9], in assay [10], in assay [11], in assay [12] and in assay [13] was > 100 µM (inactive) in each case. For the same compound, the GI50 was > 100 µM (inactive) in [18]; 63.8 µM (inactive) in assay [14]; > 100 µM (inactive) in assay [15]; > 100 µM (inactive) in assay [16]; > 100 µM (inactive) in [17].

Take `SCc1ccc(CS)s1`: the GI50 is > 100 µM (inactive) in assay [3]; > 100 µM (inactive) in [4]; > 100 µM in [5]; > 100 µM (inactive) in assay [19]; 15.3 µM (inactive) in assay [6]; > 100 µM (inactive) in assay [7]. The GI50 was > 100 µM (inactive) in [8]; > 100 µM (inactive) in [9]; > 100 µM (inactive) in assay [10]; > 100 µM (inactive) in assay [12]; 68.5 µM (inactive) in assay [18]; > 100 µM (inactive) in [14]. Further, the GI50 in assay [15], in [16] and in [17] was > 100 µM (inactive) each time.

Regarding `CC(=O)C(=[N+]=[N-])C(=O)N(C)CCC#N`, the GI50 in [1] was > 10 µM (inactive); in assay [2], > 10 µM (inactive); in assay [4], > 10 µM (inactive); in assay [5] it was > 10 µM; in assay [19], > 10 µM (inactive); in assay [6], > 10 µM (inactive). The GI50 in [7], in assay [8], in assay [9], in [10], in assay [11] and in assay [12] was > 10 µM (inactive) in each case. For the same compound, the GI50 is > 10 µM (inactive) in assay [13]; 0.118 µM (active) in assay [18]; > 10 µM (inactive) in assay [14]; > 10 µM (inactive) in assay [15]; 3.58 µM (inactive) in [16]; > 10 µM (inactive) in assay [17].

The values are drawn from ChEMBL document CHEMBL1201862, “PubChem BioAssay data set” (2004).
